# Laboratory results: US20190388559A1, “ENCAPSULATION OF METAL OXIDE NANOMATERIALS FOR CONTROLLED RELEASE AND TARGETED DELIVERY” (Boise State University, priority 2018, published 2019)
# Tested on: T47D breast cancer cells
# Assay: Alamar Blue viability of T47D cells with or without UV triggered release
# Type: cell-based
# Conditions: 48 hours, free nZnO 16.3 μg/mL, free PTX 40 nM
# Experimental: Both cell lines were cultured in log phase using RPMI 1640 media supplemented with 10% fetal bovine serum (FBS), 1% penicillin/streptomycin, 2 mM L-glutamine, and for T47D cells, 0.2 Units/mL of bovine insulin per American Type Culture Collection (ATCC) recommendations.
# For viability assessments, both Jurkat and T47D cells were cultured following ATCC recommendations noted above. For the Jurkat T cell line, the cells were first washed with PPH free RPMI 1640 and then seeded at a concentration of 2.5×10^5 cells/mL using the same media in a 96 well plate. For T47D cells, the cells were first seeded in the culture media at 1.0×10^5 cells/well in a 24 well plate the day prior to treatment to allow for cell attachment. The media was then gently aspirated and replaced with the PPH free RPMI 1640 media prior to NP treatment. […]
# Once treated with NPs, the cells were then cultured for 48 hours at 37° C. and 5% CO2. […] After optimizing the UV irradiation protocol, required UV exposure was determined to be 3 minutes for Jurkat cells and 2 minutes for T47D cells to re-establish the toxicity of the nZnO while minimizing effects to the cellular viability. Cell viability was assessed using the Alamar Blue metabolic assay. […] The fluorescence intensity measurements were performed using a Biotek Synergy MX plate reader using an excitation/emission of 530/590 nm.
smiles,measurement,value
"CC(=O)O[C@H]1C(=O)[C@@]2(C)[C@H]([C@H](OC(=O)c3ccccc3)[C@]3(O)C[C@H](OC(=O)[C@H](O)[C@@H](NC(=O)c4ccccc4)c4ccccc4)C(C)=C1C3(C)C)[C@]1(OC(C)=O)CO[C@@H]1C[C@@H]2O [PTX, Paclitaxel]",effect of free (non-encapsulated) controls on viability,somewhat similar effect as the non-triggered release Enc-nZnO/PTX group
